Source: patent US20210254272A1, “TEXTILES HAVING ANTIMICROBIAL PROPERTIES” (Livinguard AG, priority 2015, published 2021)

Tested on: E. coli (ATCC 25922)
Test: AATCC Test Method 100-2012 antibacterial activity of the treated textile, after 25 washes and 12 abrasion cycles, contact time 60 minutes
Type: cell-based
Details: for Log reduction of antimicrobial performance: 1% o.w.f; for Log reduction of antimicrobial performance in 100 GSM cotton fabric / Log reduction of antimicrobial performance in 300 GSM cotton fabric: 2 min
Method: The antibacterial activity of the textile was tested in accordance with AATCC Test Method 100-2012. Prior to the test, the fabric was cut into coupons of 2×4 inches and washed separately 25 times, and exposed to 12 abrasion cycles, as per US EPA protocol 90072PA4 (described further below). The tests were made against E. coli (ATCC 25922). Contact time was 60 minutes, after inoculating with 10^8 CFU per coupon.

[1] = exhaust 80° C., 60 min, curing 180° C., dosage 0.1% o.w.f
[2] = exhaust 80° C., 60 min, curing 180° C., dosage 0.2% o.w.f
[3] = exhaust 80° C., 60 min, curing 180° C., dosage 0.5% o.w.f
[4] = exhaust 80° C., 60 min, curing 180° C., dosage 0.8% o.w.f
[5] = exhaust 80° C., 60 min, curing 180° C., dosage 1.0% o.w.f

polyglucosamine [chitosan]
Log reduction of antimicrobial performance of each active ingredient (exhaust 60° C., solution dosage 1% o.w.f, process time 60 min): 1.4 Log | Log reduction of antimicrobial performance of each active ingredient (exhaust 60° C., solution dosage 1% o.w.f, process time 90 min): 1.5 Log | Log reduction of antimicrobial performance of each active ingredient (exhaust 60° C., solution dosage 1% o.w.f, process time 120 min): 1.6 Log | Log reduction of antimicrobial performance of each active ingredient (exhaust 60° C., solution dosage 1% o.w.f, process time 180 min): 1.7 Log | Log reduction of antimicrobial performance of each active ingredient (exhaust 60° C., solution dosage 1% o.w.f, process time 240 min): 1.65 Log | Log reduction of antimicrobial performance (exhaust 80° C., 60 min, curing 170° C., curing dwell time 0.5 min): 0.3 Log | Log reduction of antimicrobial performance (exhaust 80° C., 60 min, curing 170° C., curing dwell time 1.0 min): 0.7 Log | Log reduction of antimicrobial performance (exhaust 80° C., 60 min, curing 170° C., curing dwell time 1.5 min): 0.7 Log | Log reduction of antimicrobial performance (exhaust 80° C., 60 min, curing 170° C., curing dwell time 2.0 min): 1.4 Log | Log reduction of antimicrobial performance (exhaust 80° C., 60 min, curing 170° C., curing dwell time 2.5 min): 1.3 Log | Log reduction of antimicrobial performance (exhaust 80° C., 60 min, curing 170° C., curing dwell time 3.0 min): 0.64 Log | Log reduction of antimicrobial performance (exhaust 80° C., 60 min, curing 180° C., curing dwell time 0.5 min): 1.4 Log | Log reduction of antimicrobial performance (exhaust 80° C., 60 min, curing 180° C., curing dwell time 1.0 min): 1.5 Log | Log reduction of antimicrobial performance (exhaust 80° C., 60 min, curing 180° C., curing dwell time 1.5 min): 1.6 Log | Log reduction of antimicrobial performance (exhaust 80° C., 60 min, curing 180° C., curing dwell time 2.0 min): 3.5 Log | Log reduction of antimicrobial performance (exhaust 80° C., 60 min, curing 180° C., curing dwell time 2.5 min): 3.5 Log | Log reduction of antimicrobial performance (exhaust 80° C., 60 min, curing 180° C., curing dwell time 3.0 min): 3.4 Log | Log reduction of antimicrobial performance (exhaust 80° C., 60 min, curing 190° C., curing dwell time 0.5 min): 0.3 Log | Log reduction of antimicrobial performance (exhaust 80° C., 60 min, curing 190° C., curing dwell time 1.0 min): 1.2 Log | Log reduction of antimicrobial performance (exhaust 80° C., 60 min, curing 190° C., curing dwell time 1.5 min): 1.4 Log | Log reduction of antimicrobial performance (exhaust 80° C., 60 min, curing 190° C., curing dwell time 2.0 min): 2.66 Log | Log reduction of antimicrobial performance (exhaust 80° C., 60 min, curing 190° C., curing dwell time 2.5 min): 2.31 Log | Log reduction of antimicrobial performance (exhaust 80° C., 60 min, curing 190° C., curing dwell time 3.0 min): 1.3 Log | Log reduction of antimicrobial performance (exhaust 80° C., 60 min, curing temperature 100 ° C.): 0.16 Log | Log reduction of antimicrobial performance (exhaust 80° C., 60 min, curing temperature 120 ° C.): 0.23 Log | Log reduction of antimicrobial performance (exhaust 80° C., 60 min, curing temperature 140 ° C.): 0.88 Log | Log reduction of antimicrobial performance (exhaust 80° C., 60 min, curing temperature 160 ° C.): 1.34 Log | Log reduction of antimicrobial performance (exhaust 80° C., 60 min, curing temperature 165 ° C.): 1.38 Log | Log reduction of antimicrobial performance (exhaust 80° C., 60 min, curing temperature 170 ° C.): 1.48 Log | Log reduction of antimicrobial performance (exhaust 80° C., 60 min, curing temperature 175 ° C.): 2.41 Log | Log reduction of antimicrobial performance (exhaust 80° C., 60 min, curing temperature 180 ° C.): 2.67 Log | Log reduction of antimicrobial performance (exhaust 80° C., 60 min, curing temperature 185 ° C.): 2.68 Log | Log reduction of antimicrobial performance (exhaust 80° C., 60 min, curing temperature 190 ° C.): 2.69 Log | Log reduction of antimicrobial performance (exhaust 80° C., 60 min, curing temperature 195 ° C.): 2.71 Log | Log reduction of antimicrobial performance in 100 GSM cotton fabric [1]: 0.63 Log | Log reduction of antimicrobial performance in 300 GSM cotton fabric [1]: 0.65 Log | Log reduction of antimicrobial performance in 100 GSM cotton fabric [2]: 1.37 Log | Log reduction of antimicrobial performance in 300 GSM cotton fabric [2]: 1.38 Log | Log reduction of antimicrobial performance in 100 GSM cotton fabric [3]: 1.91 Log | Log reduction of antimicrobial performance in 300 GSM cotton fabric [3]: 1.91 Log | Log reduction of antimicrobial performance in 100 GSM cotton fabric [4]: 2.21 Log | Log reduction of antimicrobial performance in 300 GSM cotton fabric [4]: 2.21 Log | Log reduction of antimicrobial performance in 100 GSM cotton fabric [5]: 2.71 Log | Log reduction of antimicrobial performance in 300 GSM cotton fabric [5]: 2.72 Log | Log reduction of antimicrobial performance of each active ingredient (exhaust 80° C., 60 min, dosage 1% o.w.f (test up to 5% o.w.f)): 2.45 Log | Log reduction of antimicrobial performance of each active ingredient (exhaust 80° C., 60 min, dosage 2% o.w.f): 2.46 Log | Log reduction of antimicrobial performance of each active ingredient (exhaust 80° C., 60 min, dosage 3% o.w.f): 2.47 Log | Log reduction of antimicrobial performance of each active ingredient (exhaust 80° C., 60 min, dosage 4% o.w.f): 2.47 Log | Log reduction of antimicrobial performance of each active ingredient (exhaust 80° C., 60 min, dosage 5% o.w.f): 2.47 Log | Log reduction of antimicrobial performance of each active ingredient (exhaust 80 ° C., solution dosage 1% o.w.f, process time 10 min): 0.67 Log | Log reduction of antimicrobial performance of each active ingredient (exhaust 80 ° C., solution dosage 1% o.w.f, process time 20 min): 1.13 Log | Log reduction of antimicrobial performance of each active ingredient (exhaust 80 ° C., solution dosage 1% o.w.f, process time 30 min): 1.43 Log | Log reduction of antimicrobial performance of each active ingredient (exhaust 80 ° C., solution dosage 1% o.w.f, process time 40 min): 1.73 Log | Log reduction of antimicrobial performance of each active ingredient (exhaust 80 ° C., solution dosage 1% o.w.f, process time 50 min): 2.45 Log | Log reduction of antimicrobial performance of each active ingredient (exhaust 80 ° C., solution dosage 1% o.w.f, process time 60 min): 2.67 Log | Log reduction of antimicrobial performance of each active ingredient (exhaust 80 ° C., solution dosage 1% o.w.f, process time 70 min): 2.68 Log | Log reduction of antimicrobial performance of each active ingredient (exhaust 80 ° C., solution dosage 1% o.w.f, process time 80 min): 2.72 Log
